Measurements reported in US9180115B2, “Cyclohexylamines” (Asana Biosciences, LLC, priority 2011, dated 2015).
Where two headings read alike, the source gives them in different places.

Key:
[1] = molecular target: T1, human Nav1.5 sodium channel (Homo sapiens, UniProt Q14524); experiment: FLIPR membrane potential assay in hNav1.5-HEK293 cells; format: cell-based
T1 construct: host or cells: HEK-293
Method: C. Method for Assessing the Extent of Inhibition of Sodium Channel Response with Compounds in hNav1.5-HEK293 Cells.
The following assay was used to assess the tendency of the test compounds to block the dominant cardiac sodium channel isoform. Nav1.5 sodium channels are known to be permeable to quaternary sodium channel blockers such as QX-314 and, thus, the assay was performed in the absence of a chemical TRPV1 agonist.
The hNav1.5-HEK-293 cells (CreaCell, France, a human embryonic kidney cell line expressing the human Nav1.5 sodium channel) were cultured in Growth medium (containing 1×DMEM (Gibco)+10% FBS (PAA Gold)+2% glutamine 100 mM (Gibco)+1% penicillin 10,000 U/mL streptomycin 10,000 μg/mL (Invitrogen)+1.2 mg/mL Geneticin® G418 (Invitrogen)) in 75 mL cell bind flasks (Corning). The following steps were followed exactly as mentioned. The spent medium was discarded and the cells rinsed once with PBS-1×. Accutase® (1-2 mL; PAA) solution was added. The plate was placed on a 37° C. warming incubator 3-5 minutes. As soon as cells are detached, 37° C. complete medium (9 mL) was added. The cell suspension is drawn into a sterile pipette and cells homogenized gently to dissociate cell aggregates. The cells were counted using a hemocytometer with Blue Trypan and then centrifuged 5 minutes at 400 g. The cells can be amplified or maintained by seeding […] in a T75 flask (final volume: 15 mL). 8000 cells in 50 μL Growth medium was added to each well of 384-well, clear bottomed, sterile poly-D-lysine coated plates with lid (Greiner-bio one) inside the laminar air-flow. The plates were incubated at 37° C. and 5% CO2 in a CO2 incubator (Thermo) for 48 hours.
On the day of the assay, cells were washed with Assay buffer, which was prepared using the components and amounts in the following Table 5. pH was adjusted to 7.4 with NaOH, volume made up to 500 mL with Milli-Q® water.
Assay Buffer was added to the cells and incubated at rt (25° C.) for 10 minutes. The compounds were diluted in assay buffer. The compounds were added and incubated at rt (25° C.) for 10 minutes. Red FMP Dye (MDC) was added to the cells and the plate was incubated at rt (25° C.) for 30 minutes. Veratridine stock (20 mM; Sigma) was prepared in DMSO; veratridine (final concentration of 30 μM) in assay buffer was added to each well of the cell seeded plates in the FLIPR and read taken for 10 minutes. The following table provides data illustrating the sodium channel activity of the test compounds in response to the presence or absence of heat stimulation in cells expressing hTRPV1. The compounds were tested for differential activity at 25° C. and 47° C. and at two test concentrations.

[2] = system: sodium channel response in hTRPV1-N1E115 cells; experiment: FLIPR membrane potential assay of sodium channel response in hTRPV1-N1E115 cells with or without heat (47° C.) activation; format: cell-based; details: for hTRPV1-N1E Nav 0.1 mM (% inhibition) 25° C. / hTRPV1-N1E Nav 1 mM (% inhibition) 25° C.: 25° C. (no heat activation); for hTRPV1-N1E Nav 0.1 mM (% inhibition) 47° C. / hTRPV1-N1E Nav 1 mM (% inhibition) 47° C.: 47° C. (heat activated); for IC50: 47° C., read-out: hTRPV1-N1E IC50 (μM) 47° C.
From the text: In one embodiment, a modified FLIPR® (Fluorometric Imaging Plate Reader) based assay system was developed which is capable of discriminating between non-specific versus hTRPV1-mediated entry of test compounds. Advantageously, the assay system utilizes heat activated opening of hTRPV1 channels followed by an assessment of internal sodium channel block. The assay allows a permanently charged compound to selectively enter through opened hTRPV1 channels and that compound's potency in inhibiting sodium channels from the cytoplasm side of the same cell can be assessed and quantified.
The test compounds are diluted in the Assay Buffer and added to each well of a specific 384-well ‘compound plate’, which serves as a source plate for compound addition using the FLIPR® platform. The concentration of compounds in the compound-plate was adjusted to achieve the desired final concentration when added to the cells in the ‘cell-plate’. After completion of the dye incubation period, the dye loaded cell-plates and the compound source plates are inserted into the FLIPR® Tetra device with a 384 FLIPR® tip box (Molecular Devices, Inc.) according to manufacturer's instructions. The compounds are robotically added to the dye loaded cell-plates using software integral to the FLIPR® Tetra instrument.
Immediately following compound addition, hTRPV1 is activated, in one of the duplicate cell plates, by heating. Specifically, entire multi-well plate containing the compound-cells mixture is incubated at 47° C. for 10 minutes, after which they are returned to room temperature (about 25° C.) for a further 30 minutes. Heat activation of hTRPV1 was omitted from the replicate cell plate which was simply maintained at room temperature for the entire 40 minutes.
A membrane potential response is elicited in the dye- and compound-loaded cells by the addition of veratridine which is a known sodium channel ‘agonist’. As illustrated in an example herein, an agonist plate containing veratridine (Sigma) is prepared in advance and is inserted into suitable devices such as, e.g., the FLIPR® TETRA device for a “2nd addition” as instructed by the manufacturer. The concentration of veratridine in the ‘agonist plate’ was adjusted to achieve a final concentration of 100 μM when added to the cells in the cell-plate. Final concentrations of veratridine greater or lesser than 100 μM may also be used but the signal measured by the FLIPR® TETRA device or another suitable device may vary accordingly.
The exposure of the cells in the cell-plate to veratridine induces sodium channels in the cells to open and the resulting ion flux produces a membrane potential depolarization that is detected as a fluorescence signal by the FLIPR® Tetra Device. The activity of test compounds is determined by their ability to attenuate the veratridine-induced fluorescence signal, the most promising compounds are those that show an enhanced activity in the heat-activated cell plate over the non-heat-activated cell plate. This differential activity reflects enhanced compound uptake via the heat activated and open hTRPV1 channels and rests on the fact that sodium channel block requires test compounds to act from the cytoplasmic side of the cell membrane.
In vitro assays were developed for assessing the inhibition of sodium channel response with compounds following stimulation by heat (47° C.) in cells expressing hTRPV1.
(v) Membrane potential Assay to Assess Sodium Channel Function in hTRPV1-Expressing Cells • Cells were plated at 5000 per 50 μL [DMEM+10% FBS+300 μg/mL H\hygromycin] per well, in a 384 clear bottom poly-D-lysine coated plate and incubated at 37° C. and 5% CO2 for 48 hours. On the day of the assay, media were discarded gently and 30 μL of the dye [FMP blue dye was prepared in assay buffer] per well was added and dye-loading was allowed to proceed for 20 min at room temperature. […]

[3] = system: Male Sprague Dawley (SD) rats; experiment: In vivo assay of mechanical nociception (rat pinch model, perisciatic injection); details: for Average Time of Analgesia: lidocaine 2%
[4] = read-out: HEK Nav 1.5 IC50 (μM) (AVG)

T1 sequence (Q14524 whole entry): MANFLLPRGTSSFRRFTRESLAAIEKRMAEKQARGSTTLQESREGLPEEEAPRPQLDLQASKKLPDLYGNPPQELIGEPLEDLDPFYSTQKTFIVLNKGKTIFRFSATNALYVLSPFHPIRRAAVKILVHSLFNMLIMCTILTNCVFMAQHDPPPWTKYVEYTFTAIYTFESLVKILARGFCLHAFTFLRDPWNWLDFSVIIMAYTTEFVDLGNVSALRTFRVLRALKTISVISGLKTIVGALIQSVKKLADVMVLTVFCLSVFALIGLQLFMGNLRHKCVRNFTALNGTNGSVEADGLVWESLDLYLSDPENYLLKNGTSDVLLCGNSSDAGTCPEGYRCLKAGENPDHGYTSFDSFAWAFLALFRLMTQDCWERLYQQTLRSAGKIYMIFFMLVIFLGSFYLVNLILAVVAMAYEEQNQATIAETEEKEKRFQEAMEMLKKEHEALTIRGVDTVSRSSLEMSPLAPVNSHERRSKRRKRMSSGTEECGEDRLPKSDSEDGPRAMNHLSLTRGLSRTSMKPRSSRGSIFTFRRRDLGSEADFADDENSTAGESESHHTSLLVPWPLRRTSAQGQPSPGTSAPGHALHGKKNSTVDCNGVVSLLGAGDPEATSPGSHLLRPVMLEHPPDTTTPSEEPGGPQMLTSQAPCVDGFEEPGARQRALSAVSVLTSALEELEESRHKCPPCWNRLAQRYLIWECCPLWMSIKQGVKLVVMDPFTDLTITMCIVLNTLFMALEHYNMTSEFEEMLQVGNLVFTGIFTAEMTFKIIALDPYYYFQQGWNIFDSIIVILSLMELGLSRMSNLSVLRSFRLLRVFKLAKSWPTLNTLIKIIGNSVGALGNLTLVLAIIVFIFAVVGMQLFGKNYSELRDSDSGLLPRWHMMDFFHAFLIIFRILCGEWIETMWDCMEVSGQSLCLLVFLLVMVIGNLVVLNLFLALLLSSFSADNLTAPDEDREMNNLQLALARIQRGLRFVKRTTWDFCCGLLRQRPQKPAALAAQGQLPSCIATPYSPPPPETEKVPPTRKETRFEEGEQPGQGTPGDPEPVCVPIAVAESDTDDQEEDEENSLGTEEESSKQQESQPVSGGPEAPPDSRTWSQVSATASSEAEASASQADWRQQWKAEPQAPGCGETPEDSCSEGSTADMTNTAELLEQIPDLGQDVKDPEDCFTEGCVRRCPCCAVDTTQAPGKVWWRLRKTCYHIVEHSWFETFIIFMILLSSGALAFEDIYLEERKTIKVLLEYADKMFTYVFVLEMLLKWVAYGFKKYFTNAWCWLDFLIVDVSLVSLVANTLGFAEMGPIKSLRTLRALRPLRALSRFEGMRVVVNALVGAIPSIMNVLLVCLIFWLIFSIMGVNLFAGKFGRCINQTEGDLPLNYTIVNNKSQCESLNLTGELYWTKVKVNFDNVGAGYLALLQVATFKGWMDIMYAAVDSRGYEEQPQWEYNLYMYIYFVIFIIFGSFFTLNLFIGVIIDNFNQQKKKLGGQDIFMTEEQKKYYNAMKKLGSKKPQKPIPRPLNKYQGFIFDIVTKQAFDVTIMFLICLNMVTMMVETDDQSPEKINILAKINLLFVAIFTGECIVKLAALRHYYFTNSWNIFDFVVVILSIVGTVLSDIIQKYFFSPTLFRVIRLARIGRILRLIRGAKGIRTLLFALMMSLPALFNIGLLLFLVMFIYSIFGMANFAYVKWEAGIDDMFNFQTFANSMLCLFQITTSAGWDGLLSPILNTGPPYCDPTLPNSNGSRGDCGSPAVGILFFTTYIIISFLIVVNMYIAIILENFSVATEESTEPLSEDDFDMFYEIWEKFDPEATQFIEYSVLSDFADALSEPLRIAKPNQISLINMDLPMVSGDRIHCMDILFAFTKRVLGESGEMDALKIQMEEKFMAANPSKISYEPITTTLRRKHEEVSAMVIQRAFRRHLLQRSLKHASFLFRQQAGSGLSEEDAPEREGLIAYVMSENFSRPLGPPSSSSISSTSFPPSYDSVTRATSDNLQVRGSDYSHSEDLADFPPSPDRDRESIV

## Cc1cc(C)c(C(=O)OC(C)C[N+](C)(C)C2CCCCC2)c(C)c1.[I-] (stereo not drawn) [Example 1, N,N-dimethyl-N-[2-((2,4,6-trimethylbenzoyl)oxy)propyl]cyclohexanaminium iodide]
[1]; [4]
  IC50: 240 µM
[2]
  hTRPV1-N1E Nav 0.1 mM (% inhibition) 25° C.: 13 (N = 4) %
  hTRPV1-N1E Nav 0.1 mM (% inhibition) 47° C.: 73 (N = 4) %
  hTRPV1-N1E Nav 1 mM (% inhibition) 25° C.: 53 (N = 4) %
  hTRPV1-N1E Nav 1 mM (% inhibition) 47° C.: 92 (N = 4) %
  IC50: 10 to 100 µM
[3]; test compound 0.5%, injection 100 μL
  Average Time of Analgesia: 7 h

## CC(C[N+](C)(C)C1CCCCC1)OC(=O)c1ccccc1C(C)C.[I-] (stereo not drawn) [Example 2, N-[2-((2-isopropylbenzoyl)oxy)propyl]-N,N-dimethylcyclohexanaminium iodide]
[1]; [4]
  IC50: 188 µM
[2]
  hTRPV1-N1E Nav 0.1 mM (% inhibition) 25° C.: 23 (N = 4) %
  hTRPV1-N1E Nav 0.1 mM (% inhibition) 47° C.: 77 (N = 4) %
  hTRPV1-N1E Nav 1 mM (% inhibition) 25° C.: 78 (N = 4) %
  hTRPV1-N1E Nav 1 mM (% inhibition) 47° C.: 89 (N = 4) %
  IC50: 10 to 100 µM
[3]; test compound 0.5%, injection 200 μL
  Average Time of Analgesia: 12 h

## C[C@@H](C[N+](C)(C)C1CCCCC1)OC(=O)c1ccc(C(C)(C)C)cc1.[Br-] [Example 5, (S)—N-[2-((4-(tert-butyl)benzoyl)oxy)propyl]-N,N-dimethylcyclohexanaminium bromide]
[1]; HEK Nav 1.5 IC50 (μM) (AVG)
  IC50: 305 µM
[2]
  hTRPV1-N1E Nav 0.1 mM (% inhibition) 25° C.: 45 (N = 4) %
  IC50: 10 to 100 µM
[3]; 0.45% solution with 2% lidocaine, FIG. 1
  paw withdrawal vocalization force: remained at cut-off for the duration of the experiment
[3]; test compound 0.2%, injection 200 μL
  Average Time of Analgesia: 2 h
[3]; test compound 0.3%, injection 200 μL
  Average Time of Analgesia: 24 h
[3]; test compound 0.4%, injection 200 μL
  Average Time of Analgesia: 44 h
[3]; test compound 0.45%, injection 200 μL
  Average Time of Analgesia: >64 h

## CC(C[N+](C)(C)C1CCCCC1)OC(=O)c1sc2ccccc2c1Cl.[I-] (stereo not drawn) [Example 31, N-[2-((3-Chloro-benzo[b]thiophene-2-carbonyl)oxy)propyl]-N,N-dimethyl-cyclohexanaminium iodide]
[1]; [4]
  IC50: 160 µM
[2]
  hTRPV1-N1E Nav 0.1 mM (% inhibition) 25° C.: 27 (N = 4) %
  hTRPV1-N1E Nav 0.1 mM (% inhibition) 47° C.: 94 (N = 4) %
  IC50: 10 to 100 µM

## CC1CCC([N+](C)(C)CC(C)OC(=O)c2ccc(C(C)(C)C)cc2)CC1.[I-] (stereo not drawn) [Example 38, N-[2-((4-(tert-butyl)benzoyl)oxy)propyl]-N,N,4-trimethylcyclo-hexanaminium iodide]
[1]; [4]
  IC50: 54 µM
[2]
  hTRPV1-N1E Nav 0.1 mM (% inhibition) 25° C.: 75 (N = 4) %
  hTRPV1-N1E Nav 0.1 mM (% inhibition) 47° C.: 95 (N = 4) %
  IC50: 10 to 100 µM

## Cc1cc(C)c(C(=O)OC(C)C[N+](C)(C)C2CCC(C)CC2)c(C)c1.[I-] (stereo not drawn) [Example 39, N,N,4-Trimethyl-N-[2-((2,4,6-trimethyl-benzoyl)oxy)propyl] cyclohexanaminium iodide]
[1]; [4]
  IC50: 89 µM
[2]
  hTRPV1-N1E Nav 0.1 mM (% inhibition) 25° C.: 41 (N = 4) %
  hTRPV1-N1E Nav 0.1 mM (% inhibition) 47° C.: 7 (N = 4) %
  IC50: 10 to 100 µM

## Cc1ccc(C(=O)OC(C)C[N+](C)(C)C2CCCCC2)cc1.[I-] (stereo not drawn) [Example 42, N,N-Dimethyl-N-[2-((4-methylbenzoyl)oxy)propyl] cyclohexanaminium iodide]
[2]
  hTRPV1-N1E Nav 0.1 mM (% inhibition) 25° C.: 8 (N = 4) %
  hTRPV1-N1E Nav 0.1 mM (% inhibition) 47° C.: 45 (N = 4) %
  hTRPV1-N1E Nav 1 mM (% inhibition) 25° C.: 16 (N = 4) %
  hTRPV1-N1E Nav 1 mM (% inhibition) 47° C.: 90 (N = 4) %
  IC50: 10 to 100 µM

## CC(C)(C)c1ccc(C(=O)OCC[N+](C)(C)C2CCCCC2)cc1.[I-] [Example 43, N-[2-((4-(tert-butyl)benzoyl)oxy)ethyl]-N,N-dimethylcyclo-hexanaminium iodide]
[2]
  hTRPV1-N1E Nav 0.1 mM (% inhibition) 25° C.: 13 (N = 4) %
  hTRPV1-N1E Nav 0.1 mM (% inhibition) 47° C.: 78 (N = 4) %
  IC50: 10 to 100 µM

## CCc1ccccc1C(=O)OC(C)C[N+](C)(C)C1CCCCC1.[I-] (stereo not drawn) [Example 44, N-[2-((2-Ethylbenzoyl)oxy)propyl]-N,N-dimethylcyclo-hexanaminium iodide]
[2]
  hTRPV1-N1E Nav 0.1 mM (% inhibition) 25° C.: 56 (N = 4) %
  hTRPV1-N1E Nav 0.1 mM (% inhibition) 47° C.: 89 (N = 4) %
  hTRPV1-N1E Nav 1 mM (% inhibition) 25° C.: 81 (N = 4) %
  hTRPV1-N1E Nav 1 mM (% inhibition) 47° C.: 96 (N = 4) %

## Cc1ccc(C(=O)OC(C)C[N+](C)(C)C2CCCCC2)c(C)c1.[I-] (stereo not drawn) [Example 45, N-[2-((2,4-Dimethylbenzoyl)oxy)propyl]-N,N-dimethylcyclo-hexanaminium iodide]
[2]
  hTRPV1-N1E Nav 0.1 mM (% inhibition) 25° C.: 4 (N = 4) %
  hTRPV1-N1E Nav 0.1 mM (% inhibition) 47° C.: 72 (N = 4) %
  hTRPV1-N1E Nav 1 mM (% inhibition) 25° C.: 46 (N = 4) %
  hTRPV1-N1E Nav 1 mM (% inhibition) 47° C.: 83 (N = 4) %
  IC50: 10 to 100 µM

## C[C@H](C[N+](C)(C)C1CCCCC1)OC(=O)c1ccc(C(C)(C)C)cc1.[Br-] [Example 48, (R)-N-[2-((4-(tert-butyl)benzoyl)oxy)propyl]-N,N-dimethylcyclo-hexanaminium bromide]
[1]; HEK Nav 1.5 IC50 (μM) (AVG)
  IC50: 252 µM
[2]
  hTRPV1-N1E Nav 0.1 mM (% inhibition) 25° C.: 48 (N = 4) %
  IC50: 10 to 100 µM
